Holding throughout (format): cell-based
Test [1] deals with Calu-1 cells. Kind of test: Anti-proliferation (viability) of NSCLC Calu-1 cells, 3 days (Table 7, FIG. 2B). Conditions: Homo sapiens, 72 h; Calu-1 cells, 3 days, 10-point serial dilution; read-out: GI IC50 in Calu-1. In a few lines: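 Viability is read after treatment with compounds titrated over ten serial dilution points, with exposure lasting three days for the NSCLC line and six days for the breast cancer line.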

Test [2] deals with MCF7 cells. Kind of test: Anti-proliferation (viability) of MCF7 cells (Table 7, FIG. 2B). Conditions: Homo sapiens, MCF7, MCF7 cells, 3-6 days, 10-point serial dilution; read-out: GI IC50 in MCF-7.
For test [3], the target named is CDK4 (Homo sapiens, UniProt P11802+Q16531). Kind of test: CDK4 percentage degradation in Calu-1 cells (Table 6). On the set-up: Cells that express cyclin D1-3 and CDK4/6 proteins were treated with heterobifunctional compounds; endogenous in cells; host or cells: Calu-1. Conditions: 16 hours; for inhibition at 0.04 µM: 40 nM; for inhibition at 0.2 µM: 200 nM. In a few lines:
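Calu-1 cells exposed to heterobifunctional compounds at 40 nM or 200 nM for 16 h. Cyclin D1 and CDK4 levels measured by Western blot of RIPA lysates (BCA-normalised loading), bands quantified by densitometry and expressed as percentage degradation.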

These results are taken from patent US20260297081A1, “COMPOUNDS AND METHODS OF TREATING CANCERS” (Cullgen Inc., priority 2023, published 2026).

Sequence of CDK4 (P11802 2-303 limits assumed): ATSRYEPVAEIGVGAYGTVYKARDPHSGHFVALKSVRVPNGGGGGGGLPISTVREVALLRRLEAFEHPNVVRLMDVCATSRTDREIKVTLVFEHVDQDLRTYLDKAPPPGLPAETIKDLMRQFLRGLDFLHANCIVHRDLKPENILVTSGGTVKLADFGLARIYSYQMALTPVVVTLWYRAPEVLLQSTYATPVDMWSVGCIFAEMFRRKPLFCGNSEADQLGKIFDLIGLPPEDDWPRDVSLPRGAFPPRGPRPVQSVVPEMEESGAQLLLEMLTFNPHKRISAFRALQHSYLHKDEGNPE
Sequence of CDK4 (P24385 whole entry partner): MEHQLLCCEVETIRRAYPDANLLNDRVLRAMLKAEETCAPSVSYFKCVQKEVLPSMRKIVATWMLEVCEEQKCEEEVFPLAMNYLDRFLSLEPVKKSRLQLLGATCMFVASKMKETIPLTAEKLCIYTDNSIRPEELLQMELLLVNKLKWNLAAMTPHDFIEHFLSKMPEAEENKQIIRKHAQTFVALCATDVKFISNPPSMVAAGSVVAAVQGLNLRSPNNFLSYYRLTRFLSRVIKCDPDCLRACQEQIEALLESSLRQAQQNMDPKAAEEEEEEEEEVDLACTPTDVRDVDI
Sequence of CDK4 (Q16531 2-1140 limits assumed): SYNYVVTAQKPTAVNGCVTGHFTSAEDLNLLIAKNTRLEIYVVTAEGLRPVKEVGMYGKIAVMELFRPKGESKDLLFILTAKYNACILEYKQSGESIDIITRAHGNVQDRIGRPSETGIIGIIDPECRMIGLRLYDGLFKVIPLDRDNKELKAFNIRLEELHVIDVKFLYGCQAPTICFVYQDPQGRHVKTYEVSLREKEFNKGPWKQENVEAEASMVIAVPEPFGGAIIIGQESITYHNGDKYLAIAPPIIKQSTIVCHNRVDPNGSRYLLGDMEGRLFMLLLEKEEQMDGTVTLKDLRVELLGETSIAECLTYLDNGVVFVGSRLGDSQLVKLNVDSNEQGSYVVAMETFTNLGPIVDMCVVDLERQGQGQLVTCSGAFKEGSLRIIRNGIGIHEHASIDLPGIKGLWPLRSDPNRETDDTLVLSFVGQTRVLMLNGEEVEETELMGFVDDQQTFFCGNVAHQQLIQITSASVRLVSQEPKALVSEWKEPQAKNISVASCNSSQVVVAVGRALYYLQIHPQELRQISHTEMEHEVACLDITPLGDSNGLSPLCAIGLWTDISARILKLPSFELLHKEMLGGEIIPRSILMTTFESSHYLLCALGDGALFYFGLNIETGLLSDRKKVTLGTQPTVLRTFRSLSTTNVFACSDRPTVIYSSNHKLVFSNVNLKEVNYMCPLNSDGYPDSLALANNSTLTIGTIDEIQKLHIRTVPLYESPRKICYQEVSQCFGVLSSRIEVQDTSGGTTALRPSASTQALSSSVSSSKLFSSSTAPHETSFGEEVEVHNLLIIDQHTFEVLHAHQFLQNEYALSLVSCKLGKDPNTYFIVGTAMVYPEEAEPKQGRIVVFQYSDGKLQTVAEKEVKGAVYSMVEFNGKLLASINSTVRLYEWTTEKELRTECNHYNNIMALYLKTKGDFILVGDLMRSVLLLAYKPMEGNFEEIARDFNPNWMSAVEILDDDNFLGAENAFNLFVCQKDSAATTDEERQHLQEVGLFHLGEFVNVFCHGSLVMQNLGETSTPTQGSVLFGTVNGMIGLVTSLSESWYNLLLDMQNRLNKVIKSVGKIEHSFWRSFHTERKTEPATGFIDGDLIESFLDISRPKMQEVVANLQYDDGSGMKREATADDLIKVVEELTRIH

For the compound `CNc1ccc(C(=O)Nc2cccc(C)n2)c(NC2CC(CNC(=O)CN3CCN(c4ccc(Nc5ncc6c(C)c(C(C)=O)c(=O)n(C7CCCC7)c6n5)nc4)CC3)C2)n1` (centres unmarked) [CPD-170, 2-((3-((2-(4-(6-((6-acetyl-8-cyclopentyl-5-methyl-7-oxo-7,8-dihydropyrido[2,3-d]pyrimidin-2-yl)amino)pyridin-3-yl)piperazin-1-yl)acetamido)methyl)cyclobutyl)amino)-6-(methylamino)-N-(6-methylpyridin-2-yl)nicotinamide], the IC50 (usually the concentration that gives 50% inhibition) in test [1] is ≤ 10 nM. Further, the half-inhibitory concentration (IC50) in test [2] is 50 to 100 nM. In test [3], the inhibition (in general, the drop in the measured response relative to a control, in per cent) at 0.04 µM lay in the range of 50 to 80% and the inhibition at 0.2 µM is > 80%.
In the same order, the values of `CNc1ccc(C(=O)Nc2ccc(N(C)C)nn2)c(NC2CC(OCCC(=O)N3CCN(c4ccc(Nc5ncc6c(C)c(C(C)=O)c(=O)n(C7CCCC7)c6n5)nc4)CC3)C2)n1` (centres unmarked) [CPD-178, 2-((3-(3-(4-(6-((6-acetyl-8-cyclopentyl-5-methyl-7-oxo-7,8-dihydropyrido[2,3-d]pyrimidin-2-yl)amino)pyridin-3-yl)piperazin-1-yl)-3-oxopropoxy)cyclobutyl)amino)-N-(6-(dimethylamino)pyridazin-3-yl)-6-(methylamino)nicotinamide] are ≤ 10 nM, 50 to 100 nM, 50 to 80% and 50 to 80%.
As for `CNc1ccc(C(=O)Nc2cccc(C)n2)c(NC2CC3(C2)CN(C(=O)C2(CN4CCN(c5ccc(Nc6ncc7c(C)c(C(C)=O)c(=O)n(C8CCCC8)c7n6)nc5)CC4)CC2)C3)n1` [CPD-171, 2-((2-(1-((4-(6-((6-acetyl-8-cyclopentyl-5-methyl-7-oxo-7,8-dihydropyrido[2,3-d]pyrimidin-2-yl)amino)pyridin-3-yl)piperazin-1-yl)methyl)cyclopropane-1-carbonyl)-2-azaspiro[3.3]heptan-6-yl)amino)-6-(methylamino)-N-(6-methylpyridin-2-yl)nicotinamide], the IC50 in test [1] was ≤ 10 nM. In addition, the IC50 in test [2] was < 50 nM. In test [3], the inhibition at 0.04 µM was > 80% and the inhibition at 0.2 µM is > 80%.
`CNc1ccc(C(=O)Nc2nc(C)c(C)s2)c(NCCCCCCCNC(=O)CN2CCN(c3ccc(Nc4ncc5c(C)c(C(C)=O)c(=O)n(C6CCCC6)c5n4)nc3)CC2)n1` [CPD-4, 2-((7-(2-(4-(6-((6-acetyl-8-cyclopentyl-5-methyl-7-oxo-7,8-dihydropyrido[2,3-d]pyrimidin-2-yl)amino)pyridin-3-yl)piperazin-1-yl)acetamido)heptyl)amino)-N-(4,5-dimethylthiazol-2-yl)-6-(methylamino)nicotinamide]: the IC50 in test [1] was in the range of 10 to 50 nM; in test [2], 50 to 100 nM. For the same compound, the inhibition at 0.04 µM in test [3] fell in the range of 50 to 80%.
As for `CC(=O)c1c(C)c2cnc(Nc3ccc(N4CCN(CC(=O)NC5CC6(C5)CC(Nc5nc(NC(C)C)ccc5C(=O)Nc5cccc(C)n5)C6)CC4)cn3)nc2n(C2CCCC2)c1=O` (centres unmarked) [CPD-190, 2-((6-(2-(4-(6-((6-acetyl-8-cyclopentyl-5-methyl-7-oxo-7,8-dihydropyrido[2,3-d]pyrimidin-2-yl)amino)pyridin-3-yl)piperazin-1-yl)acetamido)spiro[3.3]heptan-2-yl)amino)-6-(isopropylamino)-N-(6-methylpyridin-2-yl)nicotinamide], the IC50 in test [1] is ≤ 10 nM; in test [2], 50 to 100 nM. The compound further registered an inhibition at 0.04 µM in test [3] of 50 to 80%. This compound showed an inhibition at 0.2 µM in test [3] of 50 to 80%.
For `CC(=O)c1c(C)c2cnc(Nc3ccc(N4CCN(CC(=O)NC5CC6(C5)CC(Nc5nc(NC(C)C)ccc5C(=O)Nc5cc(C)on5)C6)CC4)cn3)nc2n(C2CCCC2)c1=O` (centres unmarked) [CPD-199, 2-((6-(2-(4-(6-((6-acetyl-8-cyclopentyl-5-methyl-7-oxo-7,8-dihydropyrido[2,3-d]pyrimidin-2-yl)amino)pyridin-3-yl)piperazin-1-yl)acetamido)spiro[3.3]heptan-2-yl)amino)-6-(isopropylamino)-N-(5-methylisoxazol-3-yl)nicotinamide], the IC50 in test [1] was ≤ 10 nM; in test [2] it was 50 to 100 nM. This compound returned an inhibition at 0.04 µM in test [3] of 50 to 80%. This compound had an inhibition at 0.2 µM in test [3] of 50 to 80%.
Turning to `CNc1ccc(C(=O)Nc2cccc(C3CC3)n2)c(NC2CC3(C2)CN(C(=O)C2(CN4CCN(c5ccc(Nc6ncc7c(C)c(C(C)=O)c(=O)n(C8CCCC8)c7n6)nc5)CC4)CC2)C3)n1` [CPD-173, 2-((2-(1-((4-(6-((6-acetyl-8-cyclopentyl-5-methyl-7-oxo-7,8-dihydropyrido[2,3-d]pyrimidin-2-yl)amino)pyridin-3-yl)piperazin-1-yl)methyl)cyclopropane-1-carbonyl)-2-azaspiro[3.3]heptan-6-yl)amino)-N-(6-cyclopropylpyridin-2-yl)-6-(methylamino)nicotinamide], in test [1], the IC50 was ≤ 10 nM. In addition, the IC50 in test [2] is < 50 nM. Also, in test [3], the inhibition at 0.04 µM was > 80% and the inhibition at 0.2 µM was > 80%.
Take `[2H]C([2H])([2H])Nc1ccc(C(=O)Nc2cc(C)n(C)n2)c(NC2CC(CNC(=O)CN3CCN(c4ccc(Nc5ncc6c(C)c(C(C)=O)c(=O)n(C7CCCC7)c6n5)nc4)CC3)C2)n1` (centres unmarked) [CPD-206, 2-((3-((2-(4-(6-((6-acetyl-8-cyclopentyl-5-methyl-7-oxo-7,8-dihydropyrido[2,3-d]pyrimidin-2-yl)amino)pyridin-3-yl)piperazin-1-yl)acetamido)methyl)cyclobutyl)amino)-N-(1,5-dimethyl-1H-pyrazol-3-yl)-6-((methyl-d3)amino)nicotinamide]: the IC50 in test [1] was ≤ 10 nM. Further, in test [2], the IC50 was > 100 nM. In test [3], this compound returned an inhibition at 0.04 µM of 50 to 80% and an inhibition at 0.2 µM of 50 to 80%.
On to `CNc1ccc(C(=O)Nc2ccc(N(C)C)nn2)c(NC2CC(C(=O)NCCN3CCN(c4ccc(Nc5ncc6c(C)c(C(C)=O)c(=O)n(C7CCCC7)c6n5)nc4)CC3)C2)n1` (centres unmarked) [CPD-157, 2-((3-((2-(4-(6-((6-acetyl-8-cyclopentyl-5-methyl-7-oxo-7,8-dihydropyrido[2,3-d]pyrimidin-2-yl)amino)pyridin-3-yl)piperazin-1-yl)ethyl)carbamoyl)cyclobutyl)amino)-N-(6-(dimethylamino)pyridazin-3-yl)-6-(methylamino)nicotinamide], for which, in test [1], the IC50 is ≤ 10 nM. For the same compound, the IC50 in test [2] lay in the range of 50 to 100 nM. In test [3], the inhibition at 0.04 µM was 50 to 80% and the inhibition at 0.2 µM was > 80%.
In the same order, the values of `CNc1ccc(C(=O)Nc2ccc(N(C)C)nn2)c(NC2CC3(CC(NC(=O)C(C)(C)N4CCN(c5ccc(Nc6ncc7c(C)c(C(C)=O)c(=O)n(C8CCCC8)c7n6)nc5)CC4)C3)C2)n1` (centres unmarked) [CPD-174, 2-((6-(2-(4-(6-((6-acetyl-8-cyclopentyl-5-methyl-7-oxo-7,8-dihydropyrido[2,3-d]pyrimidin-2-yl)amino)pyridin-3-yl)piperazin-1-yl)-2-methylpropanamido)spiro[3.3]heptan-2-yl)amino)-N-(6-(dimethylamino)pyridazin-3-yl)-6-(methylamino)nicotinamide] are 10 to 50 nM, > 100 nM, 50 to 80% and > 80%.
In the same order, the values of `CNc1ccc(C(=O)Nc2ccc(N(C)C)nn2)c(NC2CC(NC(=O)CCN3CCN(c4ccc(Nc5ncc6c(C)c(C(C)=O)c(=O)n(C7CCCC7)c6n5)nc4)CC3)C2)n1` (centres unmarked) [CPD-150, 2-((3-(3-(4-(6-((6-acetyl-8-cyclopentyl-5-methyl-7-oxo-7,8-dihydropyrido[2,3-d]pyrimidin-2-yl)amino)pyridin-3-yl)piperazin-1-yl)propanamido)cyclobutyl)amino)-N-(6-(dimethylamino)pyridazin-3-yl)-6-(methylamino)nicotinamide] are ≤ 10 nM, 50 to 100 nM, 50 to 80% and > 80%.
For the compound `CC(=O)c1c(C)c2cnc(Nc3ccc(N4CCN(CC(=O)NC5CC(Nc6nc(NC(C)C)ccc6C(=O)Nc6cn(C)c(C7CC7)n6)C5)CC4)cn3)nc2n(C2CCCC2)c1=O` (centres unmarked) [CPD-288, 2-((3-(2-(4-(6-((6-acetyl-8-cyclopentyl-5-methyl-7-oxo-7,8-dihydropyrido[2,3-d]pyrimidin-2-yl)amino)pyridin-3-yl)piperazin-1-yl)acetamido)cyclobutyl)amino)-N-(2-cyclopropyl-1-methyl-1H-imidazol-4-yl)-6-(isopropylamino)nicotinamide], the IC50 in test [1] was ≥ 50 nM; in test [2] it was > 100 nM.
With `CC(=O)c1c(C)c2cnc(Nc3ccc(N4CCN(CCC(=O)N5CC6(CC(Nc7nc(NC(C)C)ccc7C(=O)Nc7ccc(N(C)C)nn7)C6)C5)C(C)(C)C4)cn3)nc2n(C2CCCC2)c1=O` [CPD-459, 2-((2-(3-(4-(6-((6-acetyl-8-cyclopentyl-5-methyl-7-oxo-7,8-dihydropyrido[2,3-d]pyrimidin-2-yl)amino)pyridin-3-yl)-2,2-dimethylpiperazin-1-yl)propanoyl)-2-azaspiro[3.3]heptan-6-yl)amino)-N-(6-(dimethylamino)pyridazin-3-yl)-6-(isopropylamino)nicotinamide], the IC50 in test [1] was ≤ 10 nM; in test [2], > 100 nM.
